Test results from patent US9695222B2, “Ghrelin mimetic polypeptide hapten immunoconjugates having improved solubility and immunogenicity and methods of use thereof” (The Scripps Research Institute, priority 2011, dated 2017).
Converted amounts (≈) assume the structure as drawn. Where two headings read alike, the source gives them in different places. Non-standard residues stand in square brackets, D forms with d. Residues, ends and D or L forms follow the SMILES beside them. *: point of attachment. PEG4 = NCCOCCOCCOCCOCCC(=O)O; Octanoyl = CCCCCCCC(=O)*; Butyryl = CCCC(=O)*

Columns and labels:
[1] = not given; remark: listed apart in the source
physchem = conditions: water
[2] = Hydrolytic stability of ghrelin haptens in buffered solutions for 7 days; format: physicochemical
Protocol: To test the hydrolytic stability of the Ghrelin haptens, 1 mg/mL solutions of Ghr1, Ghr4, Ghr5 and the corresponding Ghr4 and Ghr5 haptens comprising the spacer moiety (PEG-Ghr4 and PEG-Ghr5 respectively) were maintained in buffered solutions for 7 days at either 4° C. or 37° C. at pH values of pH5 (in 10 mM citrate buffer), pH6 (in 10 mM maleate buffer) or pH7 (in 10 mM phosphate buffer). FIG. 2 is a graphical representation comparing the percentage of the active acyl form of each Ghrelin hapten present after seven days with the percentage of total hydrolysis and the percentage of total oxidative degradation for each hapten.

Ser-3-n-octanoyl ghrelin = assay: Competition ELISA of plasma of immunized mice (Kd-app for ghrelin); format: binding; conditions: Tables 4A and 4B
Protocol: Immunization involved five (5) immunizations over ten (10) weeks. Age and weight-matched mice received immunizations (i.p. 0.2 mL) 90 min before the dark cycle on experimental days 0, 14 (2 weeks), 28 (4 weeks), 49 (7 weeks) and 70 (10 weeks). All immunizations used ALUM (Pierce) as the adjuvant, and contained 50 μg of protein (i.e. immunoconjugates of Ghr1, Ghr2, PEG-Ghr4 and PEG-Ghr5 peptides with carrier proteins KLH, TT or CRM197). Tail blood was collected one week post-immunization, centrifuged and plasma analyzed for antibody titers and ghrelin binding affinity.
For competitive ELISA, plates (96-well) were coated overnight at 4° C. with freshly prepared ghrelin-BSA conjugate. The plates were blocked with 4% skim milk, washed and plasma samples were added at appropriate dilutions. The plates were washed and Ser-3-n-octanoyl ghrelin was added to the wells in a concentration series starting at 100 μM. Plates were incubated for 1 h at 37° C., thoroughly washed, and goat anti-mouse-horseradish peroxidase (HRP) conjugate (Pierce) was added. After an incubation period of 1 h at RT, plates were thoroughly washed again and the HRP substrate (TMB substrate kit; Pierce) was added, the reaction was allowed to develop for 15 min and stopped by the addition of 2M H2SO4. The absorbance (450 nm) was read and the values plotted using GraFit (Erithacus Software Ltd). The free antigen concentration at which the absorbance value is 50% of the maximum absorbance was considered the average Kd-app of the plasma for ghrelin.

Q: For CCCC(=O)OC[C@H](NC(=O)[C@H](CO)NC(=O)CN)C(=O)N[C@@H](Cc1ccccc1)C(=O)N[C@@H](CC(C)C)C(=O)NCCOCCOCCOCCOCCC(=O)N[C@@H](CS)C(N)=O [PEG-Ghr4, GSS(butyryl)FL-PEG4-C-NH2] (H-GSS(Butyryl)FL[PEG4]C-NH2), which solubility (pH5) is on record?
A: Its solubility is greater than 1000 µg/mL.

Q: What about the solubility (pH6) of the same compound?
A: Its solubility is greater than 1000 µg/mL.

Q: What about the solubility (pH7) of the same compound?
A: The solubility was greater than 1000 µg/mL.

Q: Which “Solubility of hapten at pH5” value [1] does the source give for CCCCCCCC(=O)OC[C@H](NC(=O)[C@H](CO)NC(=O)CN)C(=O)N[C@@H](Cc1ccccc1)C(=O)N[C@@H](CC(C)C)C(=O)N[C@@H](CS)C(N)=O [Ghr5, GSS(octanoyl)FLC-NH2] (H-GSS(Octanoyl)FLC-NH2) here?
A: The value was “insoluble”.

Q: What about the “Solubility of hapten at pH6” value ([1]; pH6) of the same compound?
A: Its value is “insoluble”.

Q: And the “Solubility of hapten at pH7” value ([1]; pH7)?
A: The value was “insoluble”.

Q: Which results are given for CCCC(=O)OC[C@H](NC(=O)[C@H](CO)NC(=O)CN)C(=O)N[C@@H](Cc1ccccc1)C(=O)N[C@@H](CC(C)C)C(=O)N[C@@H](CS)C(N)=O [Ghr4, GSS(butyryl)FLC-NH2] (H-GSS(Butyryl)FLC-NH2)?
A: Solubility of hapten at pH5 [1]: insoluble; solubility (physchem; pH 6): > 1000 µg/mL; solubility (physchem; pH 7): < 100 µg/mL

Q: With CCCCCCCC(=O)OC[C@H](NC(=O)[C@H](CO)NC(=O)CN)C(=O)N[C@@H](Cc1ccccc1)C(=O)N[C@@H](CC(C)C)C(=O)NCCOCCOCCOCCOCCC(=O)N[C@@H](CS)C(N)=O [PEG-Ghr5, GSS(octanoyl)FL-PEG4-C-NH2] (H-GSS(Octanoyl)FL[PEG4]C-NH2) as the compound, how does the “Hydrolysis relative to Ghr5 without the spacer moiety” value ([2]; 7 days, FIG. 2) read?
A: Its value is “less hydrolysis”.

Q: And the “Oxidative degradation relative to Ghr5 without the spacer moiety” value ([2]; 7 days, FIG. 2)?
A: Its value is “significantly reduced oxidative degradation”.

Q: What about the “Hydrolysis compared with native protein (rGhrelin)” value ([2]; pH 5, 7 days, 4° C.) of the same compound?
A: The value was “approximately the same amount of hydrolysis as the native protein”.

Q: What about the “Oxidative degradation compared with Ghr5 hapten” value ([2]; pH 5, 7 days, 4° C.) of the same compound?
A: The value was “significantly less oxidative degradation”.

Q: What about the solubility (physchem; pH 5) of the same compound?
A: The solubility was greater than 1000 µg/mL.

Q: What about the solubility (physchem; pH 6) of the same compound?
A: Its solubility is greater than 1000 µg/mL.

Q: And the solubility (physchem; pH 7)?
A: Its solubility is roughly 400 µg/mL (≈ 406 µM).

Q: With CCCC(=O)OC[C@H](NC(=O)[C@H](CO)NC(=O)CN)C(=O)N[C@@H](Cc1ccccc1)C(=O)N[C@@H](CC(C)C)C(=O)N[C@@H](CO)C(=O)N1CCC[C@H]1C(=O)N[C@@H](CCC(=O)O)C(=O)N[C@@H](Cc1c[nH]cn1)C(=O)N[C@@H](CCC(N)=O)C(=O)N[C@@H](CS)C(N)=O [Ghr1] as the compound, how does the “Affinity of induced anti-ghrelin antibodies” value (Ser-3-n-octanoyl ghrelin) read?
A: Its value is “high affinity anti-ghrelin antibodies in some instances”.

Q: And the “Selectivity of induced antibodies for acylated ghrelin over the des-acyl form” value (Ser-3-n-octanoyl ghrelin)?
A: The value was “no particular selectivity”.

Q: And the solubility (physchem; pH 5)?
A: Its solubility is greater than 1000 µg/mL.

Q: What about the solubility (physchem; pH 6) of the same compound?
A: The solubility was greater than 1000 µg/mL.

Q: What about the solubility (physchem; pH 7) of the same compound?
A: Its solubility is greater than 1000 µg/mL.

Q: Which results are given for CC(C)C[C@H](NC(=O)[C@H](CCCCN)NC(=O)[C@H](C)NC(=O)[C@@H]1CCCN1C(=O)[C@@H]1CCCN1C(=O)[C@H](CCCCN)NC(=O)[C@H](CCCCN)NC(=O)[C@H](CO)NC(=O)[C@H](CCC(=O)O)NC(=O)[C@H](CCCCN)NC(=O)[C@H](CCCNC(=N)N)NC(=O)[C@H](CCC(N)=O)NC(=O)[C@H](CCC(N)=O)NC(=O)[C@@H](N)CS)C(=O)N[C@@H](CCC(N)=O)C(=O)N1CCC[C@H]1C(=O)N[C@@H](CCCNC(=N)N)C(N)=O [Ghr2]?
A: Affinity of induced anti-ghrelin antibodies (Ser-3-n-octanoyl ghrelin): high affinity anti-ghrelin antibodies in some instances; Selectivity of induced antibodies for acylated ghrelin over the des-acyl form (Ser-3-n-octanoyl ghrelin): no particular selectivity; solubility (physchem; pH 5): > 1000 µg/mL; solubility (physchem; pH 6): > 1000 µg/mL; solubility (physchem; pH 7): > 1000 µg/mL
